This note sets out measurements from patent US20230279024A1, “TRIAZINE COMPOUND AND COMPOSITION AND USE THEREOF” (BEIJING FINDCURE BIOSCIENCES, LTD., priority 2020, published 2023).

One data set deals with AXL (h) kinase (Homo sapiens (Human), UniProt P30530). The experiment in a line: AXL (h) kinase activity test (EZ Reader mobility shift, FLPeptide30). It is filed as biochemical. Conditions: ATP 100 μM, AXL 1 nM. The protocol:
The effect of the disclosed compounds as protein kinase inhibitors can be evaluated by the following experiments. The AXL (h) kinase activity of the compounds of the invention is tested by the following methods:
Reagents used in the experiment were AXL (Carna Bioscience, Cat No.: 08-107) and FLPeptide30 (PerkinElmer, Cat No.: 760430). The instruments involved were thermotank (Thermo Scientific), oscillator (QILINBEIER), EZ Reader (PerkinElmer, Cat No.: 122919), Non-contact stage pipetting system (Labcyte Inc., Cat No.: Echo 550), and non-contact nanoliter pipetting system (TECAN, Cat No.: EVO200).
Compound dilution: 1) Dissolve the compound in DMSO to the appropriate concentration; 2) Using TECAN EVO200 to dilute 10 concentrations in 384 microplates by three times gradient, the highest concentration is 1 mM; Echo550 was used to transfer 20 nL solution from the dilution plate to the test plate.
2) Add 15 μL solution 1 to each well of the test plate and incubate at room temperature for 30 minutes.
4) Add 5 μL solution 2 to start the reaction, and the final volume of each well is 20 μL.
5) Incubated at 25° C. for 90 min, and then added 75 μL stop solution (containing 0.5 M EDTA) to terminate the reaction.
6) The sample of each well was analyzed using EZ reader.
1) Based on the measured conversion rate (CR), the Remaining Activity (%) of the kinase was calculated according to the following function:
2) XLFit (Equation 201) software was used to fit IC50.
The above methods can be used to obtain the inhibitory IC50 and/or inhibitory constant Ki.

A further data set concerns Ba/F3 AXL cells. Briefly: Cell activity test: growth inhibition of Ba/F3 AXL cell line (CTG, 72 h). Conditions: Mus musculus, BaF3. It is filed as cell-based. How it is done: This experiment was conducted by detecting the inhibitory effect of compounds on the growth of Ba/F3 AXL cell line and Ba/F3 parental cell line. Cells in logarithmic growth stage were harvested and counted by platelet counter. Trypan blue rejection method was used to detect cell viability to ensure that the cell viability was above 90%. Adjust cell concentration; 90 μL cell suspension was added to 96-well plates, respectively; Cells in 96-well plates were cultured overnight at 37° C., 5% CO2 and 95% humidity. A 10-fold drug solution was prepared, with the highest concentration of 10 μM, and a total of 9 concentrations were diluted at 3.16 times the ratio. 10 μL drug solution was added to each well of the 96-well plate inoculated with cells, and three wells were set for each drug concentration; 96-well plates were incubated at 37° C., 5% CO2 and 95% humidity for 72 h, and CTG analysis was performed. Thaw the CTG reagent and balance the cell plates to room temperature for 30 minutes. Add the same volume of CTG solution to each well and vibrate on a fixed-rail shaker for 5 minutes to crack the cells. Place the cell plates at room temperature for 20 minutes to stabilize the cold light signal and read the cold light value. The GraphPad Prism 5.0 software was used to analyze the data, and the nonlinear S-curve regression was used to fit the data to obtain the dose-effect curve, and the IC50 value was calculated accordingly. Cell survival rate (%)=(Lum drug to be tested −Lum culture medium control)/(Lum cell control−Lum culture medium control)×100%.

In the next data set the target is CYP2D6 (Homo sapiens (Human), UniProt P10635). Briefly: Inhibition of human liver microsomes CYP450, 2D6. It is filed as in vitro ADME. Conditions: compounds 10 μM (positive control: concentration not given). (In general: Liver microsomes are vesicles of endoplasmic reticulum, rich in cytochrome P450 enzymes.)
Chain of CYP2D6 (P10635 whole entry): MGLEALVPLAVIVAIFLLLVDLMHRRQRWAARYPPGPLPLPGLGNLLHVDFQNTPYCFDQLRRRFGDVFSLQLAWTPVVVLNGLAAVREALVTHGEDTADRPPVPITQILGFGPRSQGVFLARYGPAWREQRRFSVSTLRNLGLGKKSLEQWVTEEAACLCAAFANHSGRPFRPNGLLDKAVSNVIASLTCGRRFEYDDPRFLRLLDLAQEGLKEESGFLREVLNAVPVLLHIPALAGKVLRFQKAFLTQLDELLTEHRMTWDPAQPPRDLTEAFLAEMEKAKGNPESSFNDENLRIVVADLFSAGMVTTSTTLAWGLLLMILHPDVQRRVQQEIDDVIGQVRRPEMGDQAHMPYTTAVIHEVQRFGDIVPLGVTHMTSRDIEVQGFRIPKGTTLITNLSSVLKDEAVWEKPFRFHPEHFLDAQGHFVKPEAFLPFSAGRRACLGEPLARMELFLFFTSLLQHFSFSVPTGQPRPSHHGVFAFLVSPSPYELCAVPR
The next data set concerns CYP3A4/5. The experiment in a line: Inhibition of human liver microsomes CYP450, 3A4/5. It is filed as in vitro ADME. Conditions: compounds 10 μM (positive control: concentration not given).
The target in data set [1] is T1, CYP3A4 (Homo sapiens (Human), UniProt P08684). Conditions: hepatocytes, 2 days, 10 μM. How it is done: (§1) Cryopreservation of human primary hepatocytes was resuscitated in medium after take out from liquid nitrogen. […] Plates were incubated at 37° C. and 5% CO2 for 4-6 hours to confirm the formation of monolayer cells attached to the wall. Then the adherent culture medium was changed into hepatocyte culture medium and the culture was continued overnight.
After the test compounds and positive control inducers were co-incubated with cells, the incubation medium was removed. […] After the samples were extracted and processed, the generation of metabolites and the kinase activities of CYP1A2, 2B6 and 3A4 was quantitatively detected by LC-MS/MS, respectively.
The induction of test substance on each subenzyme was determined by detecting the generation rate of metabolites of CYP450 subenzyme substrates. The relative activity of each subenzyme was expressed as a percentage of the relative blank control, and the data were calculated according to the following formula:
Fold of induction=sample subenzyme activity/blank subenzyme activity
Relative positive control activity (PC %)=(Fold of induction of sample group—Fold of induction of blank group)/(Fold of induction of positive control group—Fold of induction of blank group)×100

The target of data set [2] is T1, CYP3A4. Conditions: hepatocytes, 2 days, 10 μM. How it is done: as §1
After the test compound and positive control inducer were co-incubated with cells, the medium was removed and mercaptoethanol was added for cell lysis. Total RNA in cells was extracted with RNA extraction kit, and then transcribed into cDNA with cDNA reverse transcription kit. The 10 μL cDNA template was taken and analyzed on the fluorescence quantitative PCR instrument to obtain the Ct value.
The gene expression data were corrected by internal reference 18S, and the relative expression differences were determined by the method of ΔΔCt commonly used in fluorescence quantitative PCR.
The ΔCt, ΔΔCt and relative expression difference values of the target genes were calculated according to the following formula:
ΔCt=Ct value of target gene−Ct value of internal reference 18S
ΔΔCt=ΔCt of experimental group or positive control group−ΔCt of blank control group
Relative expression difference (fold of induction)=2−ΔΔ^Ct
The source holds these as a separate data set.

Molecules are shown by their SMILES.

Chain of AXL (h) kinase (P30530 473-894): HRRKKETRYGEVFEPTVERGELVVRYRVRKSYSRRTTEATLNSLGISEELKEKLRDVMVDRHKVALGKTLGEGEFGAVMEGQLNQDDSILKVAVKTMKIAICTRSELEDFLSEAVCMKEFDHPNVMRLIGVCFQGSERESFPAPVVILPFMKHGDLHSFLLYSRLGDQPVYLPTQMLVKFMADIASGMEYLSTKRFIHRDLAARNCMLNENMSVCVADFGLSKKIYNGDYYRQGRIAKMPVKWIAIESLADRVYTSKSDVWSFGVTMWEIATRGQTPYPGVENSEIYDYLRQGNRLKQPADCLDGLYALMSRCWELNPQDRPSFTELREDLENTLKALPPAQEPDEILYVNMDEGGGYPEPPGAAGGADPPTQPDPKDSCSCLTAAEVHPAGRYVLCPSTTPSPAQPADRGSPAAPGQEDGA

A word on the IC50: it is the midpoint of a concentration-inhibition curve. Regarding `CC(C)C(=O)N1CCC(c2cc(-c3ccc(NC(=O)c4c5n(n(-c6ccccc6)c4=O)CCOC5)cc3F)c3c(N)ncnn23)CC1` [example 8, N-(4-(4-amino-7-(1-isobutyrylpiperidin-4-yl)pyrrolo[2,1-f][1,2,4]triazin-5-yl)-3-fluorophenyl)-2-oxo-1-phenyl-2,4,6,7-tetrahydro-1H-pyrazolo[5,1-c][1,4]oxazine-3-carboxamide], the figures for the IC50 at AXL (h) kinase and in the data set on Ba/F3 AXL cells were 5 to 50 nM and under 5 nM, respectively. Besides, the “Inhibitory rate (%) 2D6” value at CYP2D6 was “No inhibition”.
As to `CC(C)C(=O)N1CCC(c2cc(-c3ccc(NC(=O)c4c5n(n(-c6ccccc6)c4=O)CCCC5)nc3)c3c(N)ncnn23)CC1` [example 11, N-(5-(4-amino-7-(1-isobutyrylpiperidin-4-yl)pyrrolo[2,1-f][1,2,4]triazin-5-yl)pyridin-2-yl)-2-oxo-1-phenyl-1,2,4,5,6,7-hexahydropyrazolo[1,5-a]pyridine-3-carboxamide], in the data set on Ba/F3 AXL cells, the IC50 was under 5 nM. Moreover, the “Inhibitory rate (%) 2D6” value on CYP2D6 is recorded as “No inhibition”. Besides, the “Inhibitory rate (%) 3A4/5” value in the data set on CYP3A4/5 is recorded as “No inhibition”.
Turning to `CC(C)C(=O)N1CCC(c2cc(-c3ccc(NC(=O)c4c5n(n(-c6ccccc6)c4=O)CCCC5)cc3F)c3c(N)ncnn23)CC1` [example 16, N-(4-(4-amino-7-(1-isobutyrylpiperidin-4-yl)pyrrolo[2,1-f][1,2,4]triazin-5-yl)-3-fluorophenyl)-2-oxo-1-phenyl-1,2,4,5,6,7-hexahydropyrazolo[1,5-a]pyridine-3-carboxamide], the concentration for half-maximal inhibition (IC50) at AXL (h) kinase was 5 to 50 nM; in the data set on Ba/F3 AXL cells, under 5 nM. For the same compound, the “Enzymatic activity CYP3A4 Fold of induction” value (“Enzymatic activity CYP3A4 Fold” below) on CYP3A4 [1] amounted to 1.26. Further, the “Gene expression CYP3A4 Fold of induction” value on CYP3A4 [2] was determined as 276. The “Inhibitory rate (%) 3A4/5” value with CYP3A4/5 is recorded as “No inhibition”.
Regarding `CC(C)C(=O)N1CCC(c2cc(-c3ccc(NC(=O)c4c5n(n(-c6ccccc6)c4=O)CCCC5)cc3)c3c(N)ncnn23)CC1` [example 19, N-(4-(4-amino-7-(1-isobutyrylpiperidin-4-yl)pyrrolo[2,1-f][1,2,4]triazin-5-yl)phenyl)-2-oxo-1-phenyl-1,2,4,5,6,7-hexahydropyrazolo[1,5-a]pyridine-3-carboxamide], the IC50 at AXL (h) kinase is 5 to 50 nM; with Ba/F3 AXL cells it was under 5 nM. In addition, at CYP3A4 [1], the “Enzymatic activity CYP3A4 Fold” value is reported as 1.5. Further, at CYP3A4 [2], the “Gene expression CYP3A4 Fold of induction” value is 284.
Consider `Nc1ncnn2c1c(-c1ccc(NC(=O)c3c4n(n(-c5ccccn5)c3=O)CCCC4)cc1F)cc2[C@H]1CC[C@H](O)CC1` [example 30, N-(4-(4-amino-7-((1r,4r)-4-hydroxycyclohexyl)pyrrolo[2,1-f][1,2,4]triazin-5-yl)-3-fluorophenyl)-2-oxo-1-(pyridin-2-yl)-1,2,4,5,6,7-hexahydropyrazolo[1,5-a]pyridine-3-carboxamide], for which the IC50 on AXL (h) kinase and in the data set on Ba/F3 AXL cells was under 5 nM in each case. Further, on CYP3A4 [1], the “Enzymatic activity CYP3A4 Fold” value is recorded as 0.836. Besides, the “Gene expression CYP3A4 Fold of induction” value at CYP3A4 [2] is given as 1.58. The “Inhibitory rate (%) 3A4/5” value in the data set with CYP3A4/5 is given as “No inhibition”.
Turning to `Nc1ncnn2c1c(-c1ccc(NC(=O)c3c4n(n(-c5ccccc5)c3=O)CCOC4)cc1F)cc2[C@H]1CC[C@H](O)CC1` [example 22, N-(4-(4-amino-7-((1r,4r)-4-hydroxycyclohexyl)pyrrolo[2,1-f][1,2,4]triazin-5-yl)-3-fluorophenyl)-2-oxo-1-phenyl-2,4,6,7-tetrahydro-1H-pyrazolo[5,1-c][1,4]oxazine-3-carboxamide], the IC50 on AXL (h) kinase was 5 to 50 nM; with Ba/F3 AXL cells, under 5 nM. Further, the “Enzymatic activity CYP3A4 Fold” value on CYP3A4 [1] came to 1.02. Moreover, the “Gene expression CYP3A4 Fold of induction” value at CYP3A4 [2] was determined as 1.31. Moreover, in the data set with CYP3A4/5, the “Inhibitory rate (%) 3A4/5” value is listed as “No inhibition”.
The matching figures for `Nc1ncnn2c1c(-c1ccc(NC(=O)c3c4n(n(-c5ccccn5)c3=O)CCOC4)cc1F)cc2[C@H]1CC[C@H](O)CC1` [example 31, N-(4-(4-amino-7-((1r,4r)-4-hydroxycyclohexyl)pyrrolo[2,1-f][1,2,4]triazin-5-yl)-3-fluorophenyl)-2-oxo-1-(pyridin-2-yl)-2,4,6,7-tetrahydro-1H-pyrazolo[5,1-c][1,4]oxazine-3-carboxamide]: 5 to 50 nM, under 5 nM, 0.913, 0.944 and “No inhibition”.
Turning to `CC(C)(O)C(=O)N1CCC(c2cc(-c3ccc(NC(=O)c4c5n(n(-c6ccccn6)c4=O)CCCC5)cc3F)c3c(N)ncnn23)CC1` [example 29, N-(4-(4-amino-7-(1-(2-hydroxy-2-methylpropanoyl)piperidin-4-yl)pyrrolo[2,1-f][1,2,4]triazin-5-yl)-3-fluorophenyl)-2-oxo-1-(pyridin-2-yl)-1,2,4,5,6,7-hexahydropyrazolo[1,5-a]pyridine-3-carboxamide], the IC50 on AXL (h) kinase was 5 to 50 nM; with Ba/F3 AXL cells, under 5 nM. Moreover, the “Enzymatic activity CYP3A4 Fold” value on CYP3A4 [1] is on record as 1.06. The “Gene expression CYP3A4 Fold of induction” value at CYP3A4 [2] is given as 6.37.
On to `Nc1ncnn2c(C3CCN(C(=O)C4CC4)CC3)cc(-c3ccc(NC(=O)c4c5n(n(-c6ccccn6)c4=O)CCCC5)cc3F)c12` [example 10, N-(4-(4-amino-7-(1-(cyclopropanecarbonyl)piperidin-4-yl)pyrrolo[2,1-f][1,2,4]triazin-5-yl)-3-fluorophenyl)-2-oxo-1-(pyridin-2-yl)-1,2,4,5,6,7-hexahydropyrazolo[1,5-a]pyridine-3-carboxamide], for which the IC50 in the data set with Ba/F3 AXL cells is under 5 nM. Moreover, on CYP3A4 [1], the “Enzymatic activity CYP3A4 Fold” value is recorded as 0.779. For the same compound, the “Gene expression CYP3A4 Fold of induction” value at CYP3A4 [2] was found to be 24.7. Besides, the “Inhibitory rate (%) 3A4/5” value in the data set on CYP3A4/5 is on record as “No inhibition”.
As to `CC(C)C(=O)N1CCC(c2cc(-c3ccc(NC(=O)c4c5n(n(-c6ccccc6)c4=O)CCOC5)cc3)c3c(N)ncnn23)CC1` [example 3, N-(4-(4-amino-7-(1-isobutyrylpiperidin-4-yl)pyrrolo[2,1-f][1,2,4]triazin-5-yl)phenyl)-2-oxo-1-phenyl-2,4,6,7-tetrahydro-1H-pyrazolo[5,1-c][1,4]oxazine-3-carboxamide], the IC50 at AXL (h) kinase is 5 to 50 nM; in the data set on Ba/F3 AXL cells it was under 5 nM. The “Enzymatic activity CYP3A4 Fold” value on CYP3A4 [1] was determined as 0.801. Moreover, the “Gene expression CYP3A4 Fold of induction” value at CYP3A4 [2] is 4.40. Moreover, the “Inhibitory rate (%) 3A4/5” value in the data set with CYP3A4/5 is given as “No inhibition”.
